Experimental data published in the supplement of paper PMC4862054.

Legend:
Settings in all cases: incubation time: 72 h
BT-474 [1] = assay: normalised response (% of control), CellTox Green; higher = less cell death (100 = DMSO, 0 = benzethonium chloride kill control)
Outline: (§1)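 A 20 µl suspension of breast cancer cells was seeded into each well of 384-well plates containing compound at 5 concentrations in 10-fold steps over a compound-specific 10,000-fold range. After 72 h incubation, CellTox Green fluorescence (485/520 nm) was read first, and CellTiter-Glo luminescence was read after 10 min at room temperature. Each plate was normalised against 0.1 % DMSO (100) and a positive kill control (0), and each value is the normalised signal at one concentration.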

BT-549 [2] = assay: as above
Outline: as §1

CAL-120 [3] = assay: as above
Outline: as §1

CAL-148 [4] = assay: as above
Outline: as §1

CAL-51 [5] = assay: as above
Outline: as §1

CAL-85-1 [6] = assay: as above
Outline: as §1

DU-4475 [7] = assay: as above
Outline: as §1

HCC1143 [8] = assay: as above
Outline: as §1

HCC1599 [9] = assay: as above
Outline: as §1

HCC1937 [10] = assay: as above
Outline: as §1

HDQ-P1 [11] = assay: as above
Outline: as §1

Hs578T [12] = assay: as above
Outline: as §1

MCF-10A [13] = assay: as above
Outline: as §1

MDA-MB-231 [14] = assay: as above
Outline: as §1

MDA-MB-436 [15] = assay: as above
Outline: as §1

MDA-MB-453 [16] = assay: as above
Outline: as §1

MDA-MB-468 [17] = assay: as above
Outline: as §1

MFM-223 [18] = assay: as above
Outline: as §1

BT-474 [19] = assay: normalised response (% of control), CellTiter-Glo; higher = more viable cells (100 = DMSO, 0 = benzethonium chloride kill control)
Outline: as §1

BT-549 [20] = assay: as above
Outline: as §1

CAL-120 [21] = assay: as above
Outline: as §1

CAL-148 [22] = assay: as above
Outline: as §1

CAL-51 [23] = assay: as above
Outline: as §1

CAL-85-1 [24] = assay: as above
Outline: as §1

DU-4475 [25] = assay: as above
Outline: as §1

HCC1143 [26] = assay: as above
Outline: as §1

HCC1599 [27] = assay: as above
Outline: as §1

HCC1937 [28] = assay: as above
Outline: as §1

HDQ-P1 [29] = assay: as above
Outline: as §1

Hs578T [30] = assay: as above
Outline: as §1

MCF-10A [31] = assay: as above
Outline: as §1

MDA-MB-231 [32] = assay: as above
Outline: as §1

MDA-MB-436 [33] = assay: as above
Outline: as §1

MDA-MB-453 [34] = assay: as above
Outline: as §1

MDA-MB-468 [35] = assay: as above
Outline: as §1

MFM-223 [36] = assay: as above
Outline: as §1

SK-BR-3 = assay: as above
Outline: as §1

Compound: COc1cc(CCc2cc(NC(=O)c3ccc(N4CC(C)NC(C)C4)cc3)n[nH]2)cc(OC)c1 (stereo unspecified) [AZD4547] (10 nM)
- normalised response (BT-474 [1]): 95.9%
- normalised response (BT-549 [2]): 106%
- normalised response (CAL-120 [3]): 102%
- normalised response (CAL-148 [4]): 51.3%
- normalised response (CAL-51 [5]): 95%
- normalised response (CAL-85-1 [6]): 99.2%
- normalised response (DU-4475 [7]): 98.2%
- normalised response (HCC1143 [8]): 91.2%
- normalised response (HCC1599 [9]): 93.9%
- normalised response (HCC1937 [10]): 82.4%
- normalised response (HDQ-P1 [11]): 104%
- normalised response (Hs578T [12]): 103%
- normalised response (MCF-10A [13]): 79.9%
- normalised response (MDA-MB-231 [14]): 94.2%
- normalised response (MDA-MB-436 [15]): 55.9%
- normalised response (MDA-MB-453 [16]): 104%
- normalised response (MDA-MB-468 [17]): 158%
- normalised response (MFM-223 [18]): 92.8%
- normalised response (BT-474 [19]): 106%
- normalised response (BT-549 [20]): 98.4%
- normalised response (CAL-120 [21]): 95.8%
- normalised response (CAL-148 [22]): 99.5%
- normalised response (CAL-51 [23]): 111%
- normalised response (CAL-85-1 [24]): 103%
- normalised response (DU-4475 [25]): 88.8%
- normalised response (HCC1143 [26]): 99.3%
- normalised response (HCC1599 [27]): 104%
- normalised response (HCC1937 [28]): 94.8%
- normalised response (HDQ-P1 [29]): 98.9%
- normalised response (Hs578T [30]): 89.8%
- normalised response (MCF-10A [31]): 90.3%
- normalised response (MDA-MB-231 [32]): 96.4%
- normalised response (MDA-MB-436 [33]): 105%
- normalised response (MDA-MB-453 [34]): 95.7%
- normalised response (MDA-MB-468 [35]): 98.3%
- normalised response (MFM-223 [36]): 70.8%
- normalised response (SK-BR-3): 92.3%

Compound: CNC(=O)c1cc(Oc2ccc(NC(=O)Nc3ccc(Cl)c(C(F)(F)F)c3)cc2)ccn1 [Sorafenib] (10 nM)
- normalised response (BT-474 [1]): 99.3%
- normalised response (BT-549 [2]): 108%
- normalised response (CAL-120 [3]): 96%
- normalised response (CAL-148 [4]): 103%
- normalised response (CAL-51 [5]): 106%
- normalised response (CAL-85-1 [6]): 102%
- normalised response (DU-4475 [7]): 98.4%
- normalised response (HCC1143 [8]): 95.9%
- normalised response (HCC1599 [9]): 91.9%
- normalised response (HCC1937 [10]): 66.5%
- normalised response (HDQ-P1 [11]): 107%
- normalised response (Hs578T [12]): 95%
- normalised response (MCF-10A [13]): 66.7%
- normalised response (MDA-MB-231 [14]): 108%
- normalised response (MDA-MB-436 [15]): 103%
- normalised response (MDA-MB-453 [16]): 106%
- normalised response (MDA-MB-468 [17]): 97.8%
- normalised response (MFM-223 [18]): 101%
- normalised response (BT-474 [19]): 97.8%
- normalised response (BT-549 [20]): 108%
- normalised response (CAL-120 [21]): 112%
- normalised response (CAL-148 [22]): 107%
- normalised response (CAL-51 [23]): 95.9%
- normalised response (CAL-85-1 [24]): 102%
- normalised response (DU-4475 [25]): 101%
- normalised response (HCC1143 [26]): 102%
- normalised response (HCC1599 [27]): 108%
- normalised response (HCC1937 [28]): 95.2%
- normalised response (HDQ-P1 [29]): 107%
- normalised response (Hs578T [30]): 98.8%
- normalised response (MCF-10A [31]): 108%
- normalised response (MDA-MB-231 [32]): 105%
- normalised response (MDA-MB-436 [33]): 105%
- normalised response (MDA-MB-453 [34]): 100%
- normalised response (MDA-MB-468 [35]): 115%
- normalised response (MFM-223 [36]): 106%
- normalised response (SK-BR-3): 103%

Compound: COc1ccc(-c2cc3c(C)nc(N)nc3n([C@H]3CC[C@H](OCCO)CC3)c2=O)cn1 (100 nM)
- normalised response (BT-474 [1]): 94.4%
- normalised response (BT-549 [2]): 112%
- normalised response (CAL-120 [3]): 95.7%
- normalised response (CAL-148 [4]): 80.1%
- normalised response (CAL-51 [5]): 85.1%
- normalised response (CAL-85-1 [6]): 91.3%
- normalised response (DU-4475 [7]): 96.2%
- normalised response (HCC1143 [8]): 66.1%
- normalised response (HCC1599 [9]): 90.3%
- normalised response (HCC1937 [10]): 107%
- normalised response (HDQ-P1 [11]): 88.6%
- normalised response (Hs578T [12]): 89.6%
- normalised response (MCF-10A [13]): 85.6%
- normalised response (MDA-MB-231 [14]): 37.5%
- normalised response (MDA-MB-436 [15]): 97.9%
- normalised response (MDA-MB-453 [16]): 98.1%
- normalised response (MDA-MB-468 [17]): 31%
- normalised response (MFM-223 [18]): 96.2%
- normalised response (BT-474 [19]): 67.2%
- normalised response (BT-549 [20]): 69.5%
- normalised response (CAL-120 [21]): 67.7%
- normalised response (CAL-148 [22]): 74.5%
- normalised response (CAL-51 [23]): 53.4%
- normalised response (CAL-85-1 [24]): 68.9%
- normalised response (DU-4475 [25]): 83.2%
- normalised response (HCC1143 [26]): 76.8%
- normalised response (HCC1599 [27]): 88.3%
- normalised response (HCC1937 [28]): 74.5%
- normalised response (HDQ-P1 [29]): 66.3%
- normalised response (Hs578T [30]): 73.7%
- normalised response (MCF-10A [31]): 58%
- normalised response (MDA-MB-231 [32]): 64.8%
- normalised response (MDA-MB-436 [33]): 77%
- normalised response (MDA-MB-453 [34]): 55.7%
- normalised response (MDA-MB-468 [35]): 68.8%
- normalised response (MFM-223 [36]): 72.3%
- normalised response (SK-BR-3): 42%
